Patent publication US9474790B2, “Stable, protracted GLP-1/glucagon receptor co-agonists for medical use” (Novo Nordisk A/S, priority 2013, dated 2016)
Numbered stars: 1 amine (or outer) side, 2 acyl side, 3 side chain; on linkers, the order of the positions; unused ones are H or OH. Bridge positions count the residues as written; N and C are the ends. Square brackets hold non-standard residues; d marks the D form. Side chains are listed from the residue outwards. Peptide text beside a SMILES is read from it. I, II: the chains in the order shown. * marks the point of attachment. C18 diacid = O=C(O)CCCCCCCCCCCCCCCCC(=O)*; γGlu = O=C(O)[C@H](CCC(=O)[*:2])N[*:1]; Ac4c = NC1(C(=O)O)CCC1; AEEA = NCCOCCOCC(=O)O; Aib = CC(C)(N)C(=O)O

The molecules below were run against T1, human glucagon receptor (Homo sapiens, UniProt P47871) (assay: Glucagon receptor potency, CRE luciferase reporter gene assay in BHK cells). Conditions: BHK cells expressing human glucagon receptor, read-out: EC50 GlucR.
T1 construct: expressed in transfected cells; host or cells: BHK cells (parent BHK570, CRE luciferase clone BHK/KZ10-20-48), clone pLJ6'-4-25
T1 sequence (P47871 26-477): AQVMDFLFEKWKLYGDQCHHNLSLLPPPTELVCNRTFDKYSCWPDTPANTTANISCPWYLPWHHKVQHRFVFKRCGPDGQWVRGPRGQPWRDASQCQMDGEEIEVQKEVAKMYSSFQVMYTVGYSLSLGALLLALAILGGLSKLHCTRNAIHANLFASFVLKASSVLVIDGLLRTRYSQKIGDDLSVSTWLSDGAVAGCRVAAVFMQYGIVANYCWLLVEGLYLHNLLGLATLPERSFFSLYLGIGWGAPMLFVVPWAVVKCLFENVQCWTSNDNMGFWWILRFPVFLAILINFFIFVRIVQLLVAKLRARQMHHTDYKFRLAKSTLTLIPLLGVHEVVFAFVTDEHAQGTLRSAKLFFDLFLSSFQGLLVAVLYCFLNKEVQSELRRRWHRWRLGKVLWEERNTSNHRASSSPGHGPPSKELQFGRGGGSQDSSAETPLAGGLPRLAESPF
Type: cell-based
Outline: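 EC50 (pM) comes from a four-parameter fit of luciferase luminescence after 3 h at 37 °C with compound at final 1×10EE-13–1×10EE-6 M. Cells: BHK570-derived line carrying human glucagon receptor plus CRE-luciferase, 5×10EE3/well, in assay medium with 2% ovalbumin, 0.2% Pluronic F-68.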

Question: CC(C)C[C@H](NC(=O)[C@H](Cc1ccc(O)cc1)NC(=O)[C@H](CCCCN)NC(=O)[C@H](CO)NC(=O)[C@H](CC(C)C)NC(=O)[C@H](CC(=O)O)NC(=O)[C@H](CO)NC(=O)[C@@H](NC(=O)[C@H](Cc1ccccc1)NC(=O)[C@@H](NC(=O)CNC(=O)[C@H](CCC(N)=O)NC(=O)C1(NC(=O)[C@@H](N)Cc2c[nH]cn2)CCC1)[C@@H](C)O)[C@@H](C)O)C(=O)N[C@@H](CCC(=O)O)C(=O)N[C@@H](CO)C(=O)N[C@@H](CCCCN)C(=O)N[C@@H](CCCNC(=N)N)C(=O)N[C@@H](C)C(=O)N[C@@H](CCCNC(=N)N)C(=O)N[C@@H](CCC(=O)O)C(=O)N[C@@H](Cc1ccccc1)C(=O)N[C@H](C(=O)N[C@@H](CCC(N)=O)C(=O)N[C@@H](Cc1c[nH]c2ccccc12)C(=O)N[C@@H](CC(C)C)C(=O)N[C@@H](CC(C)C)C(=O)N[C@@H](CCCCNC(=O)CNC(=O)[C@H](CO)NC(=O)[C@H](CCC(=O)O)NC(=O)CNC(=O)[C@H](CO)NC(=O)CC[C@H](NC(=O)CC[C@H](NC(=O)CCCCCCCCCCCCCCCCC(=O)O)C(=O)O)C(=O)O)C(=O)N[C@H](C(N)=O)[C@@H](C)O)C(C)C [Example 36, N^ε28-[2-[[(2S)-2-[[(2S)-4-carboxy-2-[[2-[[(2S)-2-[[(4S)-4-carboxy-4-[[(4S)-4-carboxy-4-(17-carboxyheptadecanoylamino)butanoyl]amino]butanoyl]amino]-3-hydroxypropanoyl]amino]acetyl]amino]butanoyl]amino]-3-hydroxypropanoyl]amino]acetyl]-[Acb2,Leu10,Glu15,Lys17, Arg20,Glu21,Leu27,Lys28]-Glucagon amide] (I: H-H[Ac4c]QGTFTSDLSKYLESKRAREFVQWLLKT-NH2 / II: {C18 diacid-γGlu-γGlu}-SGESG; amide I:28-II:C; N-terminus assumed) was tested. Which EC50 did it give?
Answer: Its EC50 is 4 pM.

Question: Which EC50 does the source give for CC(C)C[C@H](NC(=O)[C@H](Cc1ccc(O)cc1)NC(=O)[C@H](CCCCN)NC(=O)[C@H](CO)NC(=O)[C@H](CC(C)C)NC(=O)[C@H](CC(=O)O)NC(=O)[C@H](CO)NC(=O)[C@@H](NC(=O)[C@H](Cc1ccccc1)NC(=O)[C@@H](NC(=O)CNC(=O)[C@H](Cc1c[nH]cn1)NC(=O)C(C)(C)NC(=O)[C@@H](N)Cc1c[nH]cn1)[C@@H](C)O)[C@@H](C)O)C(=O)N[C@@H](CCC(=O)O)C(=O)N[C@@H](CO)C(=O)N[C@@H](CCCNC(=N)N)C(=O)N[C@@H](CCCNC(=N)N)C(=O)N[C@@H](C)C(=O)N[C@@H](CCCNC(=N)N)C(=O)N[C@@H](CC(=O)O)C(=O)N[C@@H](Cc1ccccc1)C(=O)N[C@H](C(=O)N[C@@H](CCC(N)=O)C(=O)N[C@@H](Cc1c[nH]c2ccccc12)C(=O)N[C@@H](CC(C)C)C(=O)N[C@@H](CC(C)C)C(=O)N[C@@H](CCCCNC(=O)CNC(=O)[C@H](CO)NC(=O)[C@H](CCC(=O)O)NC(=O)CNC(=O)[C@H](CO)NC(=O)CC[C@H](NC(=O)CC[C@H](NC(=O)CCCCCCCCCCCCCCCCC(=O)O)C(=O)O)C(=O)O)C(=O)N[C@H](C(N)=O)[C@@H](C)O)C(C)C [Example 37, N^ε28-[2-[[(2S)-2-[[(2S)-4-carboxy-2-[[2-[[(2S)-2-[[(4S)-4-carboxy-4-[[(4S)-4-carboxy-4-(17-carboxyheptadecanoylamino)butanoyl]amino]butanoyl]amino]-3-hydroxypropanoyl]amino]acetyl]amino]butanoyl]amino]-3-hydroxypropanoyl]amino]acetyl]-[Aib2,His3,Leu10,Glu15, Arg20,Leu27,Lys28]-Glucagon amide] (I: H-H[Aib]HGTFTSDLSKYLESRRARDFVQWLLKT-NH2 / II: {C18 diacid-γGlu-γGlu}-SGESG; amide I:28-II:C; N-terminus assumed) here?
Answer: The EC50 was 2 pM.

Question: For CC(C)C[C@H](NC(=O)[C@H](Cc1ccc(O)cc1)NC(=O)[C@H](CCCCN)NC(=O)[C@H](CO)NC(=O)[C@H](CC(C)C)NC(=O)[C@H](CC(=O)O)NC(=O)[C@H](CO)NC(=O)[C@@H](NC(=O)[C@H](Cc1ccccc1)NC(=O)[C@@H](NC(=O)CNC(=O)[C@H](CCC(N)=O)NC(=O)C(C)(C)NC(=O)[C@@H](N)Cc1c[nH]cn1)[C@@H](C)O)[C@@H](C)O)C(=O)N[C@@H](CCC(=O)O)C(=O)N[C@@H](CO)C(=O)N[C@@H](CCCNC(=N)N)C(=O)N[C@@H](CCCNC(=N)N)C(=O)N[C@@H](C)C(=O)N[C@@H](CCCNC(=N)N)C(=O)N[C@@H](CCC(=O)O)C(=O)N[C@@H](Cc1ccccc1)C(=O)N[C@H](C(=O)N[C@@H](CCC(N)=O)C(=O)N[C@@H](Cc1c[nH]c2ccccc12)C(=O)N[C@@H](CC(C)C)C(=O)N[C@@H](CC(C)C)C(=O)N[C@@H](CCCCNC(=O)CC[C@H](NC(=O)CC[C@H](NC(=O)CC[C@H](NC(=O)CCCCCCCCCCCCCCCCC(=O)O)C(=O)O)C(=O)O)C(=O)O)C(=O)N[C@H](C(N)=O)[C@@H](C)O)C(C)C [Example 41, N^ε28-[(4S)-4-carboxy-4-[[(4S)-4-carboxy-4-[[(4S)-4-carboxy-4-(17-carboxyheptadecanoylamino)butanoyl]amino]butanoyl]amino]butanoyl]-[Aib2,Leu10,Glu15, Arg20,Glu21,Leu27,Lys28]-Glucagon amide] (H-H[Aib]QGTFTSDLSKYLESRRAREFVQWLLK([γGlu-γGlu-γGlu-C18 diacid])T-NH2; N-terminus assumed), which EC50 is on record?
Answer: Its EC50 is 29 pM.

Question: Which EC50 does the source give for CC(C)C[C@H](NC(=O)[C@H](Cc1ccc(O)cc1)NC(=O)[C@H](CCCCN)NC(=O)[C@H](CO)NC(=O)[C@H](CC(C)C)NC(=O)[C@H](CC(=O)O)NC(=O)[C@H](CO)NC(=O)[C@@H](NC(=O)[C@H](Cc1ccccc1)NC(=O)[C@@H](NC(=O)CNC(=O)[C@H](CCC(N)=O)NC(=O)C(C)(C)NC(=O)[C@@H](N)Cc1c[nH]cn1)[C@@H](C)O)[C@@H](C)O)C(=O)N[C@@H](CCC(=O)O)C(=O)N[C@@H](CO)C(=O)N[C@@H](CCCNC(=N)N)C(=O)N[C@@H](CCCNC(=N)N)C(=O)N[C@@H](C)C(=O)N[C@@H](CCCNC(=N)N)C(=O)N[C@@H](CCC(=O)O)C(=O)N[C@@H](Cc1ccccc1)C(=O)N[C@H](C(=O)N[C@@H](CCC(N)=O)C(=O)N[C@@H](Cc1c[nH]c2ccccc12)C(=O)N[C@@H](CC(C)C)C(=O)N[C@@H](CC(C)C)C(=O)N[C@@H](CCCCNC(=O)COCCOCCNC(=O)COCCOCCNC(=O)CC[C@H](NC(=O)CC[C@H](NC(=O)CC[C@H](NC(=O)CCCCCCCCCCCCCCCCC(=O)O)C(=O)O)C(=O)O)C(=O)O)C(=O)N[C@H](C(N)=O)[C@@H](C)O)C(C)C [Example 42, N^ε28-[2-[2-[2-[[2-[2-[2-[[(4S)-4-carboxy-4-[[(4S)-4-carboxy-4-[[(4S)-4-carboxy-4-(17-carboxyheptadecanoylamino)butanoyl]amino]butanoyl]amino]butanoyl]amino]ethoxy]ethoxy]acetyl]amino]ethoxy]ethoxy]acetyl]-[Aib2,Leu10,Glu15,Arg20,Glu21,Leu27,Lys28]-Glucagon amide] (H-H[Aib]QGTFTSDLSKYLESRRAREFVQWLLK([AEEA-AEEA-γGlu-γGlu-γGlu-C18 diacid])T-NH2; N-terminus assumed) here?
Answer: Its EC50 is 32 pM.

Question: Which EC50 does the source give for CC(C)C[C@H](NC(=O)[C@H](Cc1ccc(O)cc1)NC(=O)[C@H](CCCCN)NC(=O)[C@H](CO)NC(=O)[C@H](CC(C)C)NC(=O)[C@H](CC(=O)O)NC(=O)[C@H](CO)NC(=O)[C@@H](NC(=O)[C@H](Cc1ccccc1)NC(=O)[C@@H](NC(=O)CNC(=O)[C@H](CCC(N)=O)NC(=O)C(C)(C)NC(=O)[C@@H](N)Cc1c[nH]cn1)[C@@H](C)O)[C@@H](C)O)C(=O)N[C@@H](CC(=O)O)C(=O)N[C@@H](C)C(=O)N[C@@H](CCCNC(=N)N)C(=O)N[C@@H](CCCNC(=N)N)C(=O)N[C@@H](C)C(=O)N[C@@H](CCCNC(=N)N)C(=O)N[C@@H](CCC(=O)O)C(=O)N[C@@H](Cc1ccccc1)C(=O)N[C@H](C(=O)N[C@@H](CCC(N)=O)C(=O)N[C@@H](Cc1c[nH]c2ccccc12)C(=O)N[C@@H](CC(C)C)C(=O)N[C@@H](CC(C)C)C(=O)N[C@@H](CCCCNC(=O)CC[C@H](NC(=O)CC[C@H](NC(=O)COCCOCCNC(=O)COCCOCCNC(=O)CC[C@H](NC(=O)CCCCCCCCCCCCCCCCC(=O)O)C(=O)O)C(=O)O)C(=O)O)C(=O)N[C@H](C(N)=O)[C@@H](C)O)C(C)C [Example 43, N^ε28-[(4S)-4-carboxy-4-[[(4S)-4-carboxy-4-[[2-[2-[2-[[2-[2-[2-[[(4S)-4-carboxy-4-(17-carboxyheptadecanoylamino)butanoyl]amino]ethoxy]ethoxy]acetyl]amino]ethoxy]ethoxy]acetyl]amino]butanoyl]amino]butanoyl]-[Aib2,Leu10,Ala16,Arg20,Glu21,Leu27,Lys28]-Glucagon amide] (H-H[Aib]QGTFTSDLSKYLDARRAREFVQWLLK([γGlu-γGlu-AEEA-AEEA-γGlu-C18 diacid])T-NH2; N-terminus assumed) here?
Answer: Its EC50 is 2 pM.
